Measurements reported in patent US20100190727A1, “USE OF MONOSACCHARIDES AND COMPOSITION THEREFOR” (L'OREAL, priority 2008, published 2010).

Key:
[1] = tested on: keratinocytes (HaCat line); experiment: Proliferation of keratinocytes (HaCat line) in culture medium deficient in growth factors; Cyquant, Nile red and XTT probes; assay type: cell-based
Protocol: The keratinocytes (HaCat line) are cultured under two conditions: whole defined culture medium (standard condition) and culture medium deficient in growth factors. This deficient medium gives rise to a controlled delay in cell proliferation. Under these conditions, it is then possible to measure the effects of compounds capable of compensating for the deficiency in growth factors of the culture medium and thus of relaunching the cell multiplication and/or of stimulating cell metabolism.
The keratinocyte proliferation is measured by means of three markers on the same cell population: the level of DNA, which is proportional to the number of cells (Cyquant probe), the level of constituent polar lipids of cell membranes (Nile red probe) and the mitochondrial respiration, which reflects the general cell metabolism (XTT probe).

[2] = tested on: dermal fibroblasts of the reconstructed skin; experiment: Proliferation of dermal fibroblasts in whole reconstructed skin (propidium iodide nuclei count on frozen sections); assay type: cell-based, human; conditions: 5 mM, 48 hours of treatment, reconstructed skin versus control skin
From the text: Rhamnose was studied on a model of whole reconstructed skin in order to measure its anti-ageing efficacy on the dermal compartment.
(§1) Briefly, the model of reconstructed skin used is that described by Bell et al. (Bell E. et al., The reconstitution of living skin, J. Invest. Dermatol., 1983, July; 81): it includes a dermal equivalent on which is reconstructed a multistratified epidermis; the dermal equivalent is manufactured from acid-soluble collagen, culture medium containing serum and normal adult human fibroblasts. After 5 days of shrinkage, this equivalent is inoculated with keratinocytes and then cultured for 6 days in immersion and for 7 days in emersion in order to obtain a multistratified and differentiated epidermis having a horny layer.
The reconstructed skin is treated with 5 mM rhamnose for 2 days and 5 days in the culture medium; after the treatment, the reconstructed skins are included in Tissue Tek in order to produce frozen sections 7 μm thick with a cryostat. […] Three frozen sections are prepared at random on each reconstructed skin; on each section, two microscopic fields (25× objective lens) are analysed by fluorescence microscopy and photographed. The dermal fibroblasts are thus counted for each reconstructed skin on six images in total representing the six microscopic fields considered. […]

type I procollagen = experiment: Synthesis of procollagen 1 in the dermis of reconstructed skin (indirect immunofluorescence); assay type: cell-based, human; conditions: for procollagen 1 synthesis: reconstructed skin
From the text: as §1
Conventional detection via indirect immunofluorescence of type I procollagen in the dermis of the reconstructed skin was also performed on other series of frozen sections (anti-procoll 1 antibody (MAB 1912 Millipore)+FTIC-coupled conjugate (112-095-068 Jackson Immunoresearch)). In order to obtain bearings within the cutaneous architecture during the microscopic examination of the sections, the cell nuclei of the keratinocytes and fibroblasts are localized by staining them with propidium iodide, as described above. Three frozen sections are prepared at random on each reconstructed skin and on each section, and two microscopic fields (25× objective lens) are analysed by fluorescence microscopy and photographed. The levels of fluorescence proportional to the amount of type I procollagen are compared between the control skin and the skin treated with rhamnose.

[3] = 1 mM, medium depleted in growth factors, versus untreated control

C[C@H](O)[C@H](O)[C@@H](O)[C@@H](O)C=O [rhamnose]
efficacy on keratinocyte proliferation markers ([1]; 500 μM, medium depleted in growth factors): already show efficacy | level of DNA (Cyquant) [1, 3]: significantly increased | level of polar lipids (Nile red signal) [1, 3]: significantly increased | mitochondrial respiration (XTT signal) [1, 3]: significantly increased | keratinocyte proliferation ([1]; HaCat keratinocytes cultured in medium depleted in growth factors, versus untreated control): activate keratinocyte proliferation | growth of the dermal fibroblasts [2]: induces stimulation of growth | green fluorescence proportional to the amount of type I procollagen (type I procollagen; 1 mM for 120 hours, reconstructed skin versus control skin): marked increase in green fluorescence | procollagen 1 synthesis (type I procollagen; 1 mM): stimulation of procollagen 1 synthesis | procollagen 1 synthesis (type I procollagen; 5 mM): stimulation of procollagen 1 synthesis
